Test results taken from BindingDB's records for doi:10.1021/jm00101a032 (Pfizer, 1992).

Key:
[1] = Binding affinity against 5-hydroxytryptamine 1A receptor
[2] = Effect on forskolin stimulated adenylate cyclase activity at 5-hydroxytryptamine 1A receptor of guinea pig hippocampus.
[3] = as above; remark: listed apart in the source

Structure (SMILES)	IC50 [1]	EC50 [2]	IC50 [3]
COc1ccc2[nH]cc(C[C@H]3CCCN3C)c2c1 [5-Methoxy-3-((R)-1-methyl-pyrrolidin-2-ylmethyl)-1H-indole]	10 nM	35 nM	–
COc1ccc2[nH]cc(C[C@@H]3CCCN3C)c2c1 [5-Methoxy-3-((S)-1-methyl-pyrrolidin-2-ylmethyl)-1H-indole]	–	–	140 nM
